From ChEMBL document CHEMBL1139922, “Discovery and structure-activity relationship studies of indole derivatives as liver X receptor (LXR) agonists” (Bioorg Med Chem Lett, 2007)

Molecular target: T1, Oxysterols receptor LXR-beta (Homo sapiens, UniProt P55055)
T1 sequence (P55055 whole entry): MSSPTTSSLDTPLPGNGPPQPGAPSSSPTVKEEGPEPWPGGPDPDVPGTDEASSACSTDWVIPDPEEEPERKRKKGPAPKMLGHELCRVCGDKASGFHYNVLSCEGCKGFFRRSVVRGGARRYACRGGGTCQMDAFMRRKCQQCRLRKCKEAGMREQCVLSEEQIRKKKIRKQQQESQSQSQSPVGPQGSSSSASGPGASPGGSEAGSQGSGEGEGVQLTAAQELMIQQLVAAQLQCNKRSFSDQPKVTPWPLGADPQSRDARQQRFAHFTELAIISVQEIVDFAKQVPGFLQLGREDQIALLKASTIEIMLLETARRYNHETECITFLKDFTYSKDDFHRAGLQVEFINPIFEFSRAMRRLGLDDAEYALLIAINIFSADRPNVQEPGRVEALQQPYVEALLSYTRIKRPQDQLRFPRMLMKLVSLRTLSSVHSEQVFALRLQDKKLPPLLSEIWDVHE
Assay: Agonist activity at LXRbeta LBD by HTRF cofactor peptide recruitment assay
Assay type: functional

Compared with CC(C)(C)OC(=O)n1c(-c2ccc3c(c2)CC(NS(=O)(=O)c2ccccc2)C3)cc2cc(O)ccc21 (stereo not drawn), CC(C)(C)OC(=O)n1c(-c2ccc3c(c2)CC(NS(=O)(=O)c2ccccc2)C3)cc2ccc(O)cc21 (stereo not drawn) is lower in EC50: > 30000 nM for the first, 670 nM for the second.

Going from CC(C)(C)OC(=O)n1c(-c2ccc3c(c2)CC(NS(=O)(=O)c2ccccc2)C3)cc2cc(F)ccc21 (stereo not drawn) to Cc1ccc2c(c1)cc(-c1ccc3c(c1)CC(NS(=O)(=O)c1ccccc1)C3)n2C(=O)OC(C)(C)C (stereo not drawn), the EC50 rises from 1500 nM to 18000 nM (12-fold).

Compared with CC(C)(C)OC(=O)n1c(-c2ccc3c(c2)C[C@H](NS(=O)(=O)c2ccccc2)C3)cc2ccccc21, CC(C)(C)OC(=O)n1c(-c2ccc3c(c2)C[C@@H](NS(=O)(=O)c2ccccc2)C3)cc2ccccc21 is 5.1-fold lower in EC50: 660 nM for the first, 130 nM for the second.

O=S(=O)(NC1Cc2ccc(-c3cc4ccccc4[nH]3)cc2C1)c1ccccc1 (stereo not drawn) and Cn1c(-c2ccc3c(c2)CC(NS(=O)(=O)c2ccccc2)C3)cc2ccccc21 (stereo not drawn) cannot be ordered by EC50: > 30000 nM for the first, > 30000 nM for the second.

Compared with CCOC(=O)n1c(-c2ccc3c(c2)CC(NS(=O)(=O)c2ccccc2)C3)cc2ccccc21 (stereo not drawn), COC(=O)n1c(-c2ccc3c(c2)CC(NS(=O)(=O)c2ccccc2)C3)cc2ccccc21 (stereo not drawn) is higher in EC50: 1600 nM for the first, > 30000 nM for the second. The first is the more potent here.

Going from CC(C)CCOC(=O)n1c(-c2ccc3c(c2)CC(NS(=O)(=O)c2ccccc2)C3)cc2ccccc21 (stereo not drawn) to CCCCC(C)COC(=O)n1c(-c2ccc3c(c2)CC(NS(=O)(=O)c2ccccc2)C3)cc2ccccc21 (stereo not drawn), the EC50 rises from 1300 nM to > 30000 nM.

O=S(=O)(NC1Cc2ccc(-c3cc4ccccc4n3S(=O)(=O)c3ccccc3)cc2C1)c1ccccc1 (stereo not drawn) and O=S(=O)(NC1Cc2ccc(-c3cc4ccccc4n3Cc3ccccc3)cc2C1)c1ccccc1 (stereo not drawn) cannot be ordered by EC50: > 30000 nM for the first, > 30000 nM for the second.

O=C(C1CCCC1)n1c(-c2ccc3c(c2)CC(NS(=O)(=O)c2ccccc2)C3)cc2ccccc21 (stereo not drawn) and O=C(CC1CC1)n1c(-c2ccc3c(c2)CC(NS(=O)(=O)c2ccccc2)C3)cc2ccccc21 (stereo not drawn) are within 1.5-fold of each other in EC50: 900 nM for the first, 1160 nM for the second.

Going from CC(C)(C)CC(=O)n1c(-c2ccc3c(c2)CC(NS(=O)(=O)c2ccccc2)C3)cc2ccccc21 (stereo not drawn) to CC(C)(C)COC(=O)n1c(-c2ccc3c(c2)CC(NS(=O)(=O)c2ccccc2)C3)cc2ccccc21 (stereo not drawn), the EC50 falls from > 30000 nM to 1400 nM. The second is the more potent here.

Compared with CC(C)(C)OC(=O)Cn1c(-c2ccc3c(c2)CC(NS(=O)(=O)c2ccccc2)C3)cc2ccccc21 (stereo not drawn), Cc1ccc2cc(-c3ccc4c(c3)CC(NS(=O)(=O)c3ccccc3)C4)n(C(=O)OC(C)(C)C)c2c1 (stereo not drawn) is lower in EC50: > 30000 nM for the first, 300 nM for the second. The second is the more potent here.

O=S(=O)(NC1Cc2ccc(-c3cc4ccccc4n3CCCOCc3ccccc3)cc2C1)c1ccccc1 (stereo not drawn) and O=S(=O)(NC1Cc2ccc(-c3cc4ccccc4n3CCc3ccccc3)cc2C1)c1ccccc1 (stereo not drawn) cannot be ordered by EC50: > 30000 nM for the first, > 10000 nM for the second.

First: CC(C)(C)OC(=O)n1c(-c2ccc3c(c2)CC(NS(=O)(=O)c2ccc(Cl)cc2)C3)cc2ccccc21 (stereo not drawn)
Second: CC(C)(C)OC(=O)n1c(-c2ccc3c(c2)CC(NS(=O)(=O)c2ccccc2Cl)C3)cc2ccccc21 (stereo not drawn)
The EC50 of the first is 1.5-fold higher: 1160 nM for the first, 760 nM for the second.

CC(C)(C)OC(=O)n1c(-c2ccc3c(c2)CC(NS(=O)(=O)c2ccccc2)C3)cc2cc(OCc3ccccc3)ccc21 (stereo not drawn) and CC(C)(C)OC(=O)n1c(-c2ccc3c(c2)CC(NS(=O)(=O)c2ccccc2)C3)cc2ccc(OCc3ccccc3)cc21 (stereo not drawn) cannot be ordered by EC50: > 30000 nM for the first, > 30000 nM for the second.

CC(C)(C)OC(=O)n1c(-c2ccc3c(c2)CC(NS(=O)(=O)c2ccccc2)C3)cc2c(OCc3ccccc3)cccc21 (stereo not drawn) and CC(C)(C)OC(=O)n1c(-c2ccc3c(c2)CC(NS(=O)(=O)c2ccccc2)C3)cc2c(O)cccc21 (stereo not drawn) cannot be ordered by EC50: > 30000 nM for the first, > 30000 nM for the second.

CC(C)(C)OC(=O)n1c(-c2ccc3c(c2)CC(NS(=O)(=O)c2ccccc2)C3)cc2cc(C#N)ccc21 (stereo not drawn) and COc1ccc2c(c1)cc(-c1ccc3c(c1)CC(NS(=O)(=O)c1ccccc1)C3)n2C(=O)OC(C)(C)C (stereo not drawn) are within 1.5-fold of each other in EC50: 26000 nM for the first, 28000 nM for the second.

First: CCCCCC(=O)n1c(-c2ccc3c(c2)CC(NS(=O)(=O)c2ccccc2)C3)cc2ccccc21 (stereo not drawn)
Second: COc1ccc(Cn2c(-c3ccc4c(c3)CC(NS(=O)(=O)c3ccccc3)C4)cc3ccccc32)cc1 (stereo not drawn)
The EC50 of the first is lower: 2100 nM for the first, > 30000 nM for the second.

With COc1ccc2cc(-c3ccc4c(c3)CC(NS(=O)(=O)c3ccccc3)C4)n(C(=O)OC(C)(C)C)c2c1 (stereo not drawn) the EC50 was 1600 nM.
